According to patent publication US20220079903A1, “COMPOSITIONS AND METHODS FOR TREATING AND PREVENTING ADHESIONS AND ILUES” (Leading Biosciences, Inc., priority 2016, published 2022):
Entries after “also recorded” stand apart in the source; their conditions may differ.

Tested on: abdominal adhesions in a rat model of surgical adhesions
Assay: rat model of surgical (abdominal) adhesions, small intestine rubbed with latex glove
Assay type: in vivo, Wistar rats
Experimental: The objective of the current study was to compare the efficacy of enteral saline, enteral Formula A, lavage tranexamic acid (TXA), and enteral Formula A with lavage TXA to prevent abdominal adhesions in a rat model of surgical adhesions.
The tests were conducted on Wistar rats from Harlan/Charles River. The sample size included 40 animals in total, with a target weight of 350-400 g (males). The rat was selected as the test model since it is accepted by regulatory authorities as a rodent animal model for toxicity studies, and high quality animals are readily available and a large amount of background pathology data is available in this species. […] The model reproducibility provides the ability to observe directional proof of concept data within normal experimental conditions.
Four groups were measured; Group 1 served as the control wherein saline (Baxter, 0.9% sodium chloride IV solution bags) was administered via enteral administration; subjects in Group 2 were exposed to an enteral administration of Formula A; subjects in Group 3 were exposed to a lavage of tranexamic acid (TXA) and saline; and subjects in Group 4 were given enteral administration of Formula A and a lavage of tranexamic acid (TXA) and saline.
Prior to the experiment, the animals were fasted and prepared for the adhesion model according to the schedule: (A) Evening Prior to Experiment—Begin Fasting; (B) Day 1: Hour−2.0—Administration of enteral test article (oral gavage); (C) Day 1: Hour 0.0−Induction of anesthesia with ketamine with a dose of 75 mg/kg, I.M; and (D) Day 1: Hour 0+10 min—induction of surgical adhesion model.
A small skin incision in the midline of the abdomen was made for isolation of small intestine. A length of the small intestine was rubbed gently with a latex glove 10 times. Animals were given abdominal lavage test article immediately after the small intestine was rubbed. Laparotomy was sutured and the animal allowed to recover. During surgery, the animals were kept warm (37° C.) at all times by a temperature therapy pad and vital signs (systemic blood pressure or respiratory rate, body temperature) were monitored at all times during experiment. Leg motion and toe reflexes were monitored for anesthetic level. On day 28—The animals were euthanized and the number and size/thickness of adhesions were quantified.

[1] = vs enteral saline Group 1, 2 side T-test

In the case of `NC[C@H]1CC[C@H](C(=O)O)CC1` [tranexamic acid (TXA), tranexamic acid], the “mean number of adhesions per animal” value (Wistar rats, day 28, enteral = 4 ml oral gavage 2 hr pre surgery, lavage = 4 ml TXA in saline right after rubbing, saline control 4.10) is reported as 0.67, the “mean severity of adhesions (score)” value (day 28, score 0-4: 4 = no adhesions, 3 ≤1 mm, 2 >1 mm ≤2 mm, 1 >2 mm, 0 = kinked intestine, saline control 1.60) is reported as 3.00 and the “number of adhesions relative to the control (in words)” value [1] is reported as “significantly less adhesions relative to the control; also recorded: significant relative to the control Group 1”. For the same molecule, the “severity of adhesions relative to the control (in words)” value [1] was “significantly smaller adhesions in terms of severity relative to the control; also recorded: significant relative to the control Group 1”.
